In the oligonucleotide strings, read from the 5' end, every base follows the letter of its sugar. An asterisk marks phosphorothioate; unmarked linkages are phosphodiester. Other units and linkages are bracketed, terminal groups are in braces. A string of capitals states the bases alone. d = 2'-deoxy (DNA); m = 2'-O-methyl; r = 2'-OH (RNA); {P} = phosphate; f = 2'-fluoro
How the values were obtained:
[1] = tested on: PCSK9 mRNA; experiment: PCSK9 silencing in primary cynomolgus monkey hepatocytes (dilution series from 30 nM, PCSK9/GAPDH mRNA); format: cell-based
Protocol: Primary cynomolgus monkey hepatocytes (cryopreserved) were obtained from In vitro Technologies, Inc. (Baltimore, Md., USA, cat No M00305) and cultured in InVitroGRO CP Medium (cat No Z99029) at 37° C. in an atmosphere with 5% CO2 in a humidified incubator.
For transfection with siRNA, primary cynomolgus monkey cells were seeded on Collagen coated plates (Fisher Scientific, cat. No. 08-774-5) at a density of 3.5×10^4 cells/well in 96-well plates and transfected directly. Transfection of siRNA (eight 2-fold dilution series starting from 30 nM) in duplicates was carried out with lipofectamine 2000 (Invitrogen GmbH, Karlsruhe, Germany, cat. No. 11668-019) as described by the manufacturer.
16 hours after transfection medium was changed to fresh InVitroGRO CP Medium with Torpedo Antibiotic Mix (In vitro Technologies, Inc, cat. No Z99000) added.
24 hours after medium change primary cynomolgus monkey cells were lysed and PCSK9 mRNA levels were quantified with the Quantigene Explore Kit (Genosprectra, Dumbarton Circle Fremont, USA, cat. No. QG-000-02) according to the protocol. PCSK9 mRNA levels were normalized to GAPDH mRNA. Normalized PCSK9/GAPDH ratios were then compared to PCSK9/GAPDH ratio of lipofectamine 2000 only control.

[2] = tested on: primary human blood monocytes (hPBMC); experiment: IFN-alpha induction in primary human blood monocytes (hPBMC); format: cell-based; conditions: for IFN-α Induction: first word of the cell IFN-α/TNF-α Induction (Yes/No); for IFN-alpha induction: human primary blood monocytes
Protocol: (§1) siRNAs were tested for activation of the immune system in primary human blood monocytes (hPBMC). […] However, chemically modified versions of this sequence (AD-1a2, AD-1a3, AD-1a5, and AD-1a4) as well as AD-2a1 were negative for both IFN-alpha and TNF-alpha induction in these same assays (see Table 5, and FIGS. 13A and 13B). Thus chemical modifications are capable of dampening both IFN-alpha and TNF-alpha responses to siRNA molecules.

[3] = tested on: primary human blood monocytes (hPBMC); experiment: TNF-alpha induction in primary human blood monocytes (hPBMC); format: cell-based; conditions: for TNF-alpha induction: human primary blood monocytes; for TNF-α Induction: second word of the cell IFN-α/TNF-α Induction (Yes/No)
Protocol: as §1

[4] = tested on: PCSK9; experiment: Total serum cholesterol in rats after LNP01 formulated PCSK9 siRNA (duration of action); format: in vivo, rat; conditions: versus PBS or control siRNA
Protocol: Rats were treated via tail vein injection with 5 mg/kg of LNP01-10792 (Formulated ALDP-10792). Blood was drawn at the indicated time points (see Table 3) and the amount of total cholesterol compared to PBS treated animals was measured by standard means. Total cholesterol levels decreased at day two ˜60% and returned to baseline by day 28.
To test if acute silencing of the PCSK9 transcript by a PCSK9 siRNA (and subsequent PCSK9 protein down-regulation), would result in acutely lower total cholesterol levels, siRNA molecule AD-1a2 (AD-10792) was formulated in an LNP01 lipidoid formulation. Liposomal formulated siRNA duplex AD-1a2 (LNP01-1a2) was injected via tail vein in low volumes (˜0.2 ml for mouse and ˜1.0 ml for rats) at different doses into C57/BL6 mice or Sprague Dawley rats.
Down-modulation of total cholesterol in rats has been historically difficult as cholesterol levels remain unchanged even at high doses of HMG-CoA reductase inhibitors. […] Rats were dosed with a single injection of LNP01-a2 via tail vein at 1, 2.5 and 5 mg/kg. Liver tissue and blood were harvested 72 hours post-injection. […] The mRNA silencing was associate with an acute ˜50-60% decrease of serum total cholesterol (FIGS. 10A and 10B) lasting 10 days, with a gradual return to pre-dose levels by ˜3 weeks (FIG. 10B).
(§2) Phosphorothioate modifications at the 3′ ends of both sense and antisense strands of a dsRNA can protect against exonucleases. 2′OMe and 2′F modifications in both the sense and antisense strands of a dsRNA can protect against endonucleases. AD-1a2 (see Table 5b) contains 2′OMe modifications on both the sense and antisense strands. Experiments were performed to determine if the inherent stability (as measured by siRNA stability in human serum) or the degree or type of chemical modification (2′OMe versus 2′F or a mixture) was related to either the observed rat efficacy or the duration of silencing effects. Stability of siRNAs with the same AD-1a2 core sequence, but containing different chemical modifications were created and tested for activity in vitro in primary Cyno monkey hepatocytes. A series of these molecules that maintained similar activity as measured by in vitro IC50 values for PCSK9 silencing (Table 5b), were then tested for their stability against exo and endonuclease cleavage in human serum. Each duplex was incubated in human serum at 37° C. (a time course), and subjected to HPLC analysis. […] Sequences AD-1a3, AD-1a5, and AD-1a4, which were more heavily modified (see chemical modifications in Table 5) all had T ½'s greater than 24 hours. […] Blood was collected from animals at various days post-dose, and total cholesterol concentrations were measured. […]

[5] = IFN-alpha activation in mice, siRNA formulated into liposomes; format: in vivo, mouse
[6] = tested on: PCSK9 mRNA; experiment: PCSK9 siRNA screening in HepG2 cells (lipofectamine 2000 transfection, PCSK9 mRNA by Quantigene, normalized to GAP-DH); format: cell-based, human
How it was run: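 PCSK9 silencing was assessed in HepG2 cells by lipofectamine 2000 siRNA transfection in 96-well plates. Twenty-four hours later, lysates were analyzed with the Quantigene Explore Kit, with PCSK9 signal normalized to GAP-DH. Eight datapoints were collected per siRNA, and remaining transcript was expressed as a percentage of cells treated with an unrelated control siRNA duplex.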

[7] = tested on: PCSK9 mRNA; experiment: In vitro screening of modified dsRNAs targeted to PCSK9 (Table 2b; cell type not given); format: cell-based; conditions: 30 nM siRNA
How it was run: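 Activity is reported as percent PCSK9 transcript remaining versus an unrelated control duplex, from eight datapoints per siRNA. Knockdown was read by Quantigene branched-DNA assay with GAPDH normalization 24 h after lipofectamine 2000 transfection of 30 nM siRNA.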

[8] = siRNA stability in human serum at 37° C., HPLC analysis; format: in vitro ADME
Protocol: as §2

[9] = PCSK9 silencing in primary cynomolgus monkey hepatocytes, approximate IC50, read-out: Primary Cynomolgus Monkey Hepatocytes ~IC50
[10] = primary cynomolgus monkey hepatocytes, read-out: IC50 in Cynomolgous monkey Hepatocyte [nM]s

Row | Substance | IC50 [1, 9] | IFN-α Induction [2] | IFN-alpha induction [2] | TNF-alpha induction [3] | TNF-α Induction [3] | decrease of total cholesterol day 2 post-dose [4] | IC50 [1, 10] | activity in vitro in primary monkey hepatocytes [1] | IFN-alpha activation in mice [5] | IC50 [6] | Mean percent remaining mRNA transcript at siRNA concentration/in cell type 3 nM/HepG2 ([6]; 3 nM siRNA) | Mean percent remaining mRNA transcript at siRNA concentration/in cell type 30 nM/HepG2 ([6]; 30 nM siRNA) | Remaining mRNA in % of controls at siRNA conc. of 30 nM [7] | IFN-alpha induction ([2]; listed as AD-1a2) | TNF-alpha induction ([3]; listed as AD-1a2) | T ½ in pooled human serum [8]
1 | AD-1a3: modified dsRNA, AD-1a2 core sequence, Alt 2′ F, 2′ OMe both strands; SEQ ID NO:1509/1510 (chain 1 GCCUGGAGUUUAUUCGGAATT; chain 2 {P}-mUfUmCfCmGfAmAfUmAfAmAfCmUfCmCfAmGfGmCdT*dT; chain 1: sugars from the 5' end fmfmfmfmfmfmfmfmfmfdd, backbone not given here) | 0.07 to 0.2 nM | No/No | negative | negative | No/No | ~60% | – | – | – | – | – | – | – | – | – | –
2 | AD-1a4: modified dsRNA, sense 2′ OMe, antisense 2′ F all Py, 5′ Phosphate; SEQ ID NO:1511/1512 (sense rGmCmCmUrGrGrArGmUmUmUrAmUmUmCrGrGrArAdT*dT; antisense {P}-fUfUfCfCrGrArAfUrArArAfCfUfCfCrArGrGfCdT*dT) | 0.07 to 0.2 nM | No/No | negative | negative | No/No | ~60% | – | – | – | – | – | – | – | – | – | –
3 | AD-1a5: modified dsRNA, sense 2′ F, antisense 2′ F all Py, 5′ Phosphate; SEQ ID NO:1513/1514 (sense GCCUGGAGUUUAUUCGGAATT; antisense {P}-fUfUfCfCrGrArAfUrArArAfCfUfCfCrArGrGfCdT*dT; sense: chemistry not given here; sense strand 2'-F modified, exact pattern not fully given) | 0.07 to 0.2 nM | No/No | negative | negative | No/No | ~60% | – | – | – | – | – | – | – | – | – | –
4 | AD-9680: dsRNA targeting the PCSK9 gene at 3530-3548; sense SEQ ID NO:1227, antisense SEQ ID NO:1228 (sense mUmUmCmUrArGrAmCmCmUrGmUmUmUmUrGmCmUmUdT*dT; antisense rArArGmCrArArArAmCrArGrGrUrCmUrArGrArAdT*dT) | 0.07 to 0.2 nM | No/No | negative | negative | No/No | – | 0.1 nM | highly active | neither AD-1a2, nor AD-2a1 activated IFN-alpha | 0.1 nM | 22% | 12% | – | – | – | –
5 | AD-10792: 2′OMe modified dsRNA targeting PCSK9 at 1091-1109, SEQ ID NO:1305/1306 (chain 1 rGmCmCmUrGrGrArGmUmUmUrAmUmUmCrGrGrArAdT*dT; chain 2 rUrUrCrCrGrArAmUrArArArCrUrCmCrArGrGrCdT*dT) | 0.07 to 0.2 nM | No/No | – | – | No/No | ~60% | 0.1 nM | active in vitro | neither AD-1a2, nor AD-2a1 activated IFN-alpha | 0.1 nM | – | – | 15% | negative | negative | ~7 h

Source: patent US20120016009A1, “Optimized Methods For Delivery Of DSRNA Targeting The PCSK9 Gene” (priority 2008, published 2012)
